Holding throughout (assay): relative viability (nuclei count vs DMSO), 5 days (fraction); higher = more cells survive
Compound in assay [1]: CS(=O)(=O)c1ccc(C(=O)Nc2ccc(Cl)c(-c3ccccn3)c2)c(Cl)c1 [Vismodegib] + N=C(N)NC(=N)NCCc1ccccc1 [Phenformin] (partner 250 µM)
In short, it runs like this: (§1)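 The day after seeding in 1536-well plates, lung cancer cell lines were treated by pin tool with a single drug, or with a fixed anchor-drug dose together with five library-drug doses (not always all listed) in √10 steps. After 5 days, a combined fix-and-stain solution (final 0.05% Triton X-100, 1% formaldehyde, 1 ug/ml Hoechst) was added. Nuclei counted on 4× images gave relative viability as treated counts over vehicle counts, reported as the median of duplicate plates.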

Compound in assay [2]: CS(=O)(=O)c1ccc(C(=O)Nc2ccc(Cl)c(-c3ccccn3)c2)c(Cl)c1 [Vismodegib] + Cc1cc(Nc2cc(N3CCN(C)CC3)nc(Sc3ccc(NC(=O)C4CC4)cc3)n2)n[nH]1 [Tozasertib] (partner 0.1 µM)
In outline: as §1

Compound in assay [3]: N#CC[C@H](C1CCCC1)n1cc(-c2ncnc3[nH]ccc23)cn1 [Ruxolitinib] + O=C(CCCCCCC(=O)Nc1ccccc1)NO [Vorinostat] (partner 1 µM)
In short, it runs like this: as §1

Compound in assay [4]: CS(=O)(=O)c1ccc(C(=O)Nc2ccc(Cl)c(-c3ccccn3)c2)c(Cl)c1 [Vismodegib] + C[C@]1(O)C[C@@H](c2nc(-c3ccc4ccc(-c5ccccc5)nc4c3)c3c(N)nccn32)C1 [Linsitinib] (partner 1 µM)
In short, it runs like this:
as §1

Consider UMC-11, for which the relative viability in assay [1] (first compound 0.08 µM) is 0.286; in assay [1] (first compound 0.253 µM), 0.311; in assay [1] (first compound 0.8 µM), 0.301; in assay [1] (first compound 2.53 µM), 0.283; in assay [1] (first compound 8 µM) it was 0.284; in assay [2] (first compound 0.08 µM), 0.184. For the same cell line, the relative viability in assay [2] (first compound 0.253 µM) was 0.196; in assay [2] (first compound 0.8 µM), 0.168; in assay [2] (first compound 2.53 µM), 0.194; in assay [2] (first compound 8 µM) it was 0.225; in assay [3] (first compound 0.08 µM), 0.362; in assay [3] (first compound 0.253 µM), 0.384. Further, the relative viability in assay [3] (first compound 0.8 µM) was determined as 0.452; in assay [3] (first compound 2.53 µM), 0.48; in assay [3] (first compound 8 µM), 0.386; in assay [4] (first compound 0.08 µM) it was 0.931; in assay [4] (first compound 0.253 µM), 0.996; in assay [4] (first compound 0.8 µM), 1.06. In addition, the relative viability in assay [4] (first compound 2.53 µM) was 0.927; in assay [4] (first compound 8 µM) it was 1.

Values taken from the supplement of paper PMC10307832.
